Data taken from patent publication US9643971B2 (GALLEON PHARMACEUTICALS, INC., priority 2013, dated 2017).
“Also recorded” adds a separate entry of the source. Structures can show the parent of a compound that is named as a salt. Where two headings read alike, the source gives them in different places. Blank lines part the entries; values can stand above or below the molecule they belong to.

Experiments:
[1] = test system: anesthetized rat; assay: Anesthetized rat spirometry screening assay; type: in vivo
Method in brief: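 Rats under urethane (1.5 g/kg i.v., after isoflurane induction) with femoral and tracheal cannulas; compounds given as i.v. bolus at 0.1 and 0.3 mg/kg with formulation-matched vehicle. RR, VT and minute volume from pneumotachometer airflow, in 30 s bins over 6 min post-dose; arterial blood gases taken pre- and 6 min post-dose.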

[2] = Pharmacokinetic and oral bioavailability in the rat; type: in vivo, Sprague-Dawley rats; conditions: Sprague-Dawley, plasma, oral gavage 10-30 mg/kg vs intravenous bolus 2-5 mg/kg
Experimental: Sprague-Dawley rats (200-300 g) were fed a standard laboratory rodent diet and housed in individual cages on a 12-hour light and 12-hour dark cycle with room temperature maintained at 22±3° C. and relative humidity at 50±20%. Rats were fasted overnight before dosing, with food returned after the 6 hour blood samples were obtained. Bedding was removed until after the 6 hour blood samples were obtained. Water was provided ad libitum throughout the study.
Dosing solution of test compound was prepared in desired oral formulation for oral administration via gavage needle at 10-30 mg/kg (10 mL/kg) to three or four rats. […]
Plasma samples (incurred study samples, calibration standards, quality controls) were normally prepared as follows. […] Calibration standards were typically prepared in the range of 2 ng/ml to 10 μg/mL for quantitation. […]
All pharmacokinetic parameters were determined based on a non-compartmental approach using WinNonlin software (Pharsight, Version 5.1). The terminal elimination half-life (t1/2) was calculated as ln2/λz using the slope (λz) from linear regression analysis of the terminal phase of the plasma concentration-time curve on a semi-log scale. […] The systemic plasma clearance (CLp) was calculated as intravenous dose divided by AUCinf. The volume of distribution at steady state (Vss) was determined as the product of CLp and MRT. […]

[3] = in vitro; conditions: male, rat, microsomes
[4] = In vitro metabolic stability in human liver microsomes (HLM); conditions: for half-life at 5 μM: both, human; for HLM T½: human liver microsomes, 5 μM compound, NADPH, 37° C.
[5] = rat, microsomes
[6] = In vitro metabolic stability in rat liver microsomes (RLM)
[7] = test system: rats chronically treated with morphine; assay: Apnea, ventilation and sleep structure in rats chronically treated with morphine (whole-body plethysmography); type: in vivo, Zucker rats; conditions: oral gavage, hydrochloride
Excerpt: The objective of this study was to quantify the effects of selected compounds of this invention on apnea, ventilation and sleep structure in a rat model. The study consisted of two treatment conditions: (1) chronic morphine and test compound administered orally, and (2) chronic morphine and oral vehicle.
Adult male lean Zucker rats were anesthetized for electroencephalogram (EEG) and electromyogram (EMG) telemeter implantation. At least one week was permitted post-surgery before animals were used further. Morphine sulfate was added to the drinking water of singly housed rats beginning with 0.1 mg/ml morphine and increasing the concentration in increments, so that a final concentration of 0.6 mg/ml was achieved within 2 weeks. All respiratory measurements were made while animals were unrestrained in whole-body plethysmography chambers to permit animals to sleep and move freely. To avoid eliciting withdrawal, morphine water was continuously available during each plethysmography experiment. Minute volume and the number of central sleep apneas (CSA) were measured during all treatment conditions. A period of at least 1 to 1.5 h was permitted for animals to acclimate to the chamber before data collection began. The biopotential telemeters and their receivers were placed directly under the plethysmographic chambers and were used to continuously to capture EEG, EMG, and body temperature signals. Only data collected between the hours of 10 am to 4:30 pm were used in the final analysis to control for the effects of circadian rhythm on breathing.
Test compound in vehicle or an equivalent volume of vehicle was administered via an oral gavage tube at 12 pm. Data collected between 10 am and 12 pm represented baseline (pre-drug) conditions. Data collected between […] represented post-drug conditions. Analyses of the EEG and EMG waveforms for the purpose of staging sleep-wake behavior in rats as awake, NREM sleep, and REM sleep were based on previous sleep studies involving rodents. Central apneas were defined as a respiratory cycle period that was more than or equal to twice the average cycle period during baseline recordings. Percent time in each sleep-wake state, minute volume, and central sleep apnea counts were compared between treatment groups using a two-way ANOVA (factors: drug treatment and time). Breathing data during wakefulness was not analyzed because movement prevents measurement of accurate volumes when using whole-body plethysmography. When differences were detected with ANOVA, Student-Neuman-Keuls post hoc tests were run for all main effects and interactions. Differences were considered significant when p<0.05. Values are expressed as means±SE.

[8] = physchem; conditions: organic solvent or mixture, thermodynamic from solid
[9] = 2 minute AUC of minute volume increase vs. comparator N-[2,6-di-(n-propylamino)-[1,3]pyrimidin-4-yl]-N,O-dimethyl-hydroxylamine
[10] = peak minute ventilation increase, urethane-anesthetized rat, i.v. bolus, screening doses 0.1 and 0.3 mg/kg
[11] = versus treatment with a vehicle

effect on pulse rate ([1]; anesthetized rat, i.v. bolus): negligible effects
bioavailability [2]: 38%
melting point: 229 to 232 °C
half-life at 5 μM [3]: 4.55 h
half-life at 5 μM ([4]; liver microsomes): 6.85 h
SMILES: CCCNc1nc(NC)nc2c(NCCC)nc(NC)nc12.Cl [Compound 4a, N^2,N^6-Dimethyl-N^4,N^8-di-n-propyl-pyrimido[5,4-d]pyrimidine-2,4,6,8-tetraamine hydrochloride]
AUC MV Inc (2 min) (ratio vs. std*) [1, 9]: 1.28 ratio vs. std
duration of increase in minute ventilation ([1]; anesthetized rat, i.v. bolus): approximately 2 minutes
effect on blood pressure ([1]; anesthetized rat, i.v. bolus): negligible effects
effect on minute ventilation above baseline values ([1]; anesthetized rat, i.v. bolus): increase
effect on respiratory rate ([1]; anesthetized rat, i.v. bolus): stimulatory effects on respiratory rate primarily
dose dependence of effect on minute volume ([1]; based on a two-minute average): dose-dependent effect
effect compared to a reference compound as measured by area-under-curve ([1]; minute volume, two-minute average): greater effect

RLM T½ [5]: 0.567 h
HLM T½ [4]: 1.52 h
SMILES: C#CCNc1nc(N(C)OC)nc2c(NCCC)nc(N(C)OC)nc12.Cl [Compound 15a, N^2,N^6-Bis(N-methoxy(N-methyl)amino)-N^4-n-propylamino-N^8-prop-2-ynylamino-pyrimido[5,4-d]pyrimidine hydrochloride]
AUC MV Inc (2 min) (ratio vs. std*) [1, 9]: 0.00 ratio vs. std
VE Peak (% Inc.) [1, 10]: 6 % Inc.

RLM T½ [5]: 0.15 h
HLM T½ [4]: 0.35 h
SMILES: CCCNc1nc(NC)nc2c(NCCC)ncnc12.Cl [Compound 22a, N^2-Methyl-N^4,N^8-di-n-propylpyrimido[5,4-d]primidine-2,4,8-triamine hydrochloride]
AUC MV Inc (2 min) (ratio vs. std*) [1, 9]: 0.01 ratio vs. std
VE Peak (% Inc.) [1, 10]: 9 % Inc.

SMILES: CCCNc1nc(NCCC(F)(F)F)nc2c(NCCC)nc(NC)nc12 [Compound 39a, hydrochloride]
AUC MV Inc (2 min) (ratio vs. std*) [1, 9]: 0.71 ratio vs. std
half-life at 5 μM ([6]; male, rat, microsomes): 2.57 h
half-life at 5 μM ([4]; microsomes): 3.97 h

SMILES: CCCNc1nc(N2CCOCC2)nc2c(NCCC)nc(NC)nc12 [Compound 41a, N^2-Methyl-N^4N^8-di-n-propyl-6-(morpholin-4-yl)-pyrimido[5,4-d]pyrimidine-2,4,8-triamine]
AUC MV Inc (2 min) (ratio vs. std*) ([1]; rat, in vivo): 0.36 ratio vs. std
VE Peak (% Inc.) ([1]; rat, in vivo): 57 % Inc.
RLM T½ ([6]; rat liver microsomes, 5 μM compound, NADPH, 37° C.): 1.67 h
HLM T½ [4]: 3.12 h

SMILES: CNc1nc(NCC2CC2)nc2c(NC)nc(NCC3CC3)nc12.Cl [Compound 85a, N^2,N^6-Bis-cyclopropylmethyl-N^4,N^8-dimethyl-pyrimido[5,4-d]pyrimidine-2,4,6,8-tetraamine hydrochloride]
AUC MV Inc (2 min) (ratio vs. std*) [1, 9]: 0.51 ratio vs. std
apnea frequency [7, 11]: reduced; also recorded: decreased
number of apneas per hr expressed as a percent change from baseline (pre-drug) [7, 11]: reduced; also recorded: decreased
minute volume compared to a vehicle-treated group [7]: did not cause an increase; also recorded: do not cause increases
number of apneas per hr versus vehicle [7]: reduced; also recorded: decreased
ventilation per unit time compared to vehicle [7]: did not cause an increase; also recorded: do not cause an increase
melting point: 264 to 265 °C
half-life at 5 μM [3]: 6.43 h
solubility ([8]; Reflux): > 50 mg/mL
solubility ([8]; r.t.): < 50 mg/mL
half-life at 5 μM ([4]; liver microsomes): 6.48 h
